The data set in a line: Human HepG2 cell viability assay in 384 well format. Conditions: HepG2 cells, read-out: Inhibition. The format is toxicity, cell-based. Further details: dose 125 nL, time 70.5 hour; concentration not given beside the values.
`O=C(CCC(=O)Nc1nnc(C2CCCCC2)s1)NCC1CCCO1` (configuration not stated): the cytotoxicity at 70.5 h is -12.1%.

On to `Cc1cccc(NC(=O)C2CC(=O)n3cnnc3S2)c1` (configuration not stated), for which the cytotoxicity at 70.5 h is -0.584%.

Consider `CN(CC(=O)N1CCc2[nH]c3ccc(F)cc3c2C1)CC1OCCO1`, for which the cytotoxicity at 70.5 h worked out at 3.34%.

On to `CCSc1nnc(N(CCC#N)CCC#N)s1`, for which the cytotoxicity at 70.5 h is 1.21%.

For the molecule `Cc1ccc(C)c(CSc2nnc([C@@H](N)C(C)C)o2)c1`, the cytotoxicity at 70.5 h is -0.583%.

With `COC(=O)COn1c(SC(C)C)nc2ccccc2c1=O`, the cytotoxicity at 70.5 h is -3.63%.

`Cn1c2ccc(F)cc2c2ncn(CCCN(CCO)CCO)c(=O)c21`: the cytotoxicity at 70.5 h turned out to be 18.9%.

Regarding `CSc1nnc(N(CCC#N)CCC#N)s1`, the cytotoxicity at 70.5 h amounted to 6.15%.

Consider `COc1cc(C2CC(=O)Oc3cc(C)[nH]c(=O)c32)ccc1O` (configuration not stated), for which the cytotoxicity at 70.5 h was -18.3%.

As to `COc1cc(OC)c(C2CC(=O)Oc3cc(C)[nH]c(=O)c32)c(OC)c1` (configuration not stated), the cytotoxicity at 70.5 h was -20.1%.

As for `COC(=O)CC(C1=Cc2ccccc2OC1)c1oc(C)cc(=O)c1O` (configuration not stated), the cytotoxicity at 70.5 h is 19.3%.

As to `O=C(NCC1CCOCC1)c1cc(-c2ccc3c(c2)CCO3)n[nH]1`, the cytotoxicity at 70.5 h is 17.3%.

For the molecule `C=C(C)COc1ccc(C(CC(=O)OC)c2oc(C)cc(=O)c2O)cc1` (configuration not stated), the cytotoxicity at 70.5 h is -0.596%.

On to `O=c1[nH]cc(Nc2ccccc2)c(=O)[nH]1`, for which the cytotoxicity at 70.5 h is 35%.

On to `OCc1cc2ccccc2nc1N1CCCCC1`, for which the cytotoxicity at 70.5 h was determined as 31.2%.

In the case of `CCOc1ccc2[nH]c3c(N(C)CC4OCCO4)ncnc3c2c1`, the cytotoxicity at 70.5 h was -21.1%.

`CC(C)C[C@H](NC(=O)N1CCC(Cc2ccccc2)CC1)C(=O)O`: the cytotoxicity at 70.5 h is -5.66%.

With `COc1ccc(-c2nc(C#N)c(N(C)C)o2)cc1OC`, the cytotoxicity at 70.5 h is -5.52%.

Take `CC(C)C[C@H](NC(=O)Nc1ccc(F)c(Cl)c1)C(=O)O`: the cytotoxicity at 70.5 h is 6.99%.

Consider `CCN1C(=O)C(C#N)=C(C)/C(=C/C2=Cc3ccccc3OC2)C1=O`, for which the cytotoxicity at 70.5 h worked out at 7.28%.

`COC(=O)COn1c(SC)nc2ccccc2c1=O`: the cytotoxicity at 70.5 h was -9.2%.

Consider `CCS(=O)(=O)c1nnc([C@@H](N)Cc2ccccc2)o1`, for which the cytotoxicity at 70.5 h stood at 16.2%.

Take `CC(C)NC(=O)N(Cc1cc(O)nc2ccccc12)C(C)C`: the cytotoxicity at 70.5 h is -7.39%.

Take `COCCN(Cc1cc(O)nc2ccccc12)C(=O)NC(C)C`: the cytotoxicity at 70.5 h was -14.7%.

As for `CC(C)Cc1nc(OCC#N)c(C#N)c2c1CCC2`, the cytotoxicity at 70.5 h is -2.63%.

For the molecule `COCCCN(Cc1cc(O)nc2ccccc12)C(=O)NC(C)C`, the cytotoxicity at 70.5 h was -13.5%.

Turning to `O=C(CC1NC(N2CCc3ccccc32)=NC1=O)Nc1ccc(Cl)cc1` (configuration not stated), the cytotoxicity at 70.5 h is -11.1%.

For `COc1ccc(-c2nc(C#N)c(N(C)C)o2)cc1S(=O)(=O)N(C)C`, the cytotoxicity at 70.5 h is -11.8%.

As for `O=C(CC1NC(N2CCc3ccccc32)=NC1=O)Nc1ccccc1` (configuration not stated), the cytotoxicity at 70.5 h is -5.06%.

Take `COc1cccc(-c2nc(C)c(C(=O)N[C@H](CO)CCSC)s2)c1`: the cytotoxicity at 70.5 h is -5.73%.

`Cc1cc(C)n2c(CCCNS(=O)(=O)c3ccccc3)nnc2n1`: the cytotoxicity at 70.5 h was -7.9%.

Regarding `Cc1sc(NS(=O)(=O)c2ccccc2)nc1C(=O)NC1CC1`, the cytotoxicity at 70.5 h was -1.95%.

For `Cc1cc(C)n2c(CCCNS(=O)(=O)c3ccc(F)cc3)nnc2n1`, the cytotoxicity at 70.5 h is -8.75%.

For the molecule `CCc1ccc2c(C3CN(S(C)(=O)=O)C3)ncn2c1`, the cytotoxicity at 70.5 h turned out to be 9.29%.

Regarding `Cc1nc(-c2cnn(C)c2)nc2c1CN(C(=O)c1cccnc1)CC2`, the cytotoxicity at 70.5 h is -2.03%.

Turning to `Cc1nc(-c2cnn(C)c2)nc2c1CN(C(=O)c1cccn1C)CC2`, the cytotoxicity at 70.5 h is 1.91%.

Regarding `Cc1ncoc1C(=O)N1C[C@@H]2CN(CC3CC3)CCO[C@@H]2C1`, the cytotoxicity at 70.5 h came out at 10.6%.

For the molecule `Cc1cccc(S(=O)(=O)N2CCCc3c(c(=O)n(C)n3C)C2)c1`, the cytotoxicity at 70.5 h was -9.39%.

As to `CS(=O)(=O)N1CC(c2ncn3ccccc23)C1`, the cytotoxicity at 70.5 h was -9.83%.

As to `Cc1ncsc1CN1C[C@@H]2CN(Cc3cccnc3)CCO[C@@H]2C1`, the cytotoxicity at 70.5 h was -5.27%.

For the molecule `c1csc(CN2CCc3nc(N4CCOCC4)nc(NC4CC4)c3C2)n1`, the cytotoxicity at 70.5 h stood at 17%.

Take `COc1cccc(N2CC3(CCN(c4cc(OC)ncn4)C3)CC2=O)c1` (configuration not stated): the cytotoxicity at 70.5 h was 7.12%.

As for `C1CN(c2nc3c(c(NC4CC4)n2)CN(CC2CCOC2)CC3)CCO1` (configuration not stated), the cytotoxicity at 70.5 h is -9.83%.

In the case of `COc1cc(N2CC3(CCN(S(=O)(=O)C4CC4)C3)C2)ncn1`, the cytotoxicity at 70.5 h is -7.2%.

`Cc1ccsc1C(=O)N1CCCc2c(c(=O)n(C)n2C)C1`: the cytotoxicity at 70.5 h is -11%.

Consider `Fc1ccc2c(c1)C1(CCNCC1)CC2OCC1CC1` (configuration not stated), for which the cytotoxicity at 70.5 h was -7.69%.

For the molecule `COc1cc(N2CC3(CCN(c4ncccn4)C3)C2)ncn1`, the cytotoxicity at 70.5 h was -9.27%.

In the case of `CN1CCCCC12CCN(c1nncs1)C2` (configuration not stated), the cytotoxicity at 70.5 h was -9.3%.

With `Cc1cccc(CN2C[C@@H](NC(=O)C3CCC3)[C@H]3COC[C@H]32)n1`, the cytotoxicity at 70.5 h is -5.38%.

With `O=C(c1cscn1)N1CCCC12CCCN(S(=O)(=O)c1ccccc1)C2` (configuration not stated), the cytotoxicity at 70.5 h was -2.41%.

Take `CCS(=O)(=O)N1CCCC2(CCCN2C(=O)c2cscn2)C1` (configuration not stated): the cytotoxicity at 70.5 h is -0.54%.

`CN(Cc1ccccc1)CC1CC2(CO1)CN(Cc1cnn(C)c1)C2` (configuration not stated): the cytotoxicity at 70.5 h was -6.11%.

With `O=C(NC1CC1)N1Cc2[nH]nc(COCC3CC3)c2C1`, the cytotoxicity at 70.5 h was -7.86%.

Take `Fc1cccnc1N1CCC2(CNCCC2(F)F)C1` (configuration not stated): the cytotoxicity at 70.5 h is 12.5%.

With `Cn1nc(CN2CCCC2)c2c1CN(C(=O)c1ccc[nH]1)CC2`, the cytotoxicity at 70.5 h amounted to 11.9%.

On to `c1cnn(Cc2nnc3n2CCCN(c2nccs2)C3)c1`, for which the cytotoxicity at 70.5 h is 12.8%.

For the molecule `CN1CCN([C@@H]2CCN(C(N)=O)[C@H]2Cc2ccccc2)CC1`, the cytotoxicity at 70.5 h is -0.0899%.

For the molecule `Cn1cncc1CN1CCC2(CC1)CCN2c1ncccn1`, the cytotoxicity at 70.5 h was -2.28%.

As for `CC1c2ncc(COCC3CCOCC3)n2CCN1C(=O)c1ccoc1` (configuration not stated), the cytotoxicity at 70.5 h is -2.87%.

As for `c1cnc(N2CCCn3c(nnc3Cn3cccn3)C2)nc1`, the cytotoxicity at 70.5 h amounted to 1.91%.

On to `CC(=O)N1CC[C@@H](N2CCN(C)CC2)[C@@H]1Cc1ccccc1`, for which the cytotoxicity at 70.5 h is -2.96%.

Regarding `CCn1cc2c(n1)CN(S(=O)(=O)c1ccc(C)cc1)CC2COC` (configuration not stated), the cytotoxicity at 70.5 h is -1.69%.

With `O=C(NC1CCc2c(ccc(=O)n2CC2CC2)C1)c1ccsc1` (configuration not stated), the cytotoxicity at 70.5 h is -1.91%.

With `CC(=O)N1CCC2(CC1)C(=O)N(c1cccnc1)c1ccc(F)cc12`, the cytotoxicity at 70.5 h was -4.87%.

As to `CCC(C)[C@H](N)c1nnc(SCC(=O)Nc2cc(C)ccc2C)o1` (some centres not stated), the cytotoxicity at 70.5 h is -1.84%.

With `CC(C)C[C@H](N)c1nnc(SCC(=O)Nc2ccc(Br)cc2)o1`, the cytotoxicity at 70.5 h is -5.07%.

As to `N[C@@H](Cc1ccccc1)c1nnc(S(=O)(=O)Cc2cccc(Cl)c2)o1`, the cytotoxicity at 70.5 h came to 13.5%.

`CCN1CCC2(CC1)OCCN2C(=O)c1cc(Cl)c(OC)c(Cl)c1`: the cytotoxicity at 70.5 h was 8.67%.

Regarding `CC(C)N1CCC2(CC1)C(=O)N(c1cccnc1)c1c(F)cccc12`, the cytotoxicity at 70.5 h is -2.98%.

Turning to `CN(C)CCNCCC(Cc1ccccc1)C1CCOC(C)(C)C1` (configuration not stated), the cytotoxicity at 70.5 h was -8.7%.

On to `Cc1ccc(C(CCNCCN(C)C)C2CCOC(C)(C)C2)cc1` (configuration not stated), for which the cytotoxicity at 70.5 h was -5.89%.

For the molecule `CN(C)CCCNCCC(Cc1ccccc1)C1CCOC(C)(C)C1` (configuration not stated), the cytotoxicity at 70.5 h is 1.12%.

With `CCN1CCO[C@@H]2CN(C(=O)c3cocn3)C[C@@H]2C1`, the cytotoxicity at 70.5 h was determined as 34.2%.

For the molecule `O=C(c1ccc2ccc(N3CCN(CC4CC4)CC3)n2c1)N1CCCO1`, the cytotoxicity at 70.5 h was -5.05%.

On to `O=C([C@H]1CCS(=O)(=O)[C@@H]2CN(CCc3ccccc3)C[C@H]12)N1CCCC1`, for which the cytotoxicity at 70.5 h is -1.64%.

As to `O=C(c1cocn1)N1C[C@@H]2CN(CC3CC3)CCO[C@@H]2C1`, the cytotoxicity at 70.5 h is -1.55%.

`CC(C)N1CCc2ncn(C)c2C1C(=O)N1CCOCC1` (configuration not stated): the cytotoxicity at 70.5 h was 5.22%.

In the case of `CCS(=O)(=O)N1CCC2(CC1)CC1(CCN(CCOC)CC1)C(=O)N2C`, the cytotoxicity at 70.5 h was -6.01%.

For the molecule `CCN1CCCC12CCCN(c1ncccn1)C2` (configuration not stated), the cytotoxicity at 70.5 h is -9.5%.

For `COc1cc(N2CC3(CCN(S(C)(=O)=O)C3)C2)ncn1`, the cytotoxicity at 70.5 h was -12%.

As for `CN1CCCCC12CCN(c1nncs1)CC2`, the cytotoxicity at 70.5 h worked out at 1.8%.

`O=C(N[C@@H]1CN(Cc2cccs2)[C@@H]2COC[C@@H]21)C1CCC1`: the cytotoxicity at 70.5 h is -4.79%.

`CCN1C(=O)[C@H]2CN(CC(C)C)C[C@H]2C12CCN(C(=O)NC(C)C)CC2`: the cytotoxicity at 70.5 h is -1.18%.

`CC(C)CN1CCCC12CCN(c1nncs1)C2` (configuration not stated): the cytotoxicity at 70.5 h was -4.38%.

Turning to `CCc1cnc(N2CCc3ncnc(N4CCN(C)CC4)c3CC2)nc1`, the cytotoxicity at 70.5 h is -3.37%.

In the case of `CCCS(=O)(=O)N1CCc2c(COCC)cncc2C1`, the cytotoxicity at 70.5 h is -3.03%.

On to `O=C(N1CCCO1)[C@]12COC[C@H]1CN(Cc1nccs1)C2`, for which the cytotoxicity at 70.5 h was -7.21%.

Consider `Cn1ccnc1CN1CCO[C@H]2C(CNC(=O)c3ccco3)CC[C@@H]21` (some centres not stated), for which the cytotoxicity at 70.5 h is -0.67%.

For the molecule `Cc1ncc2c(c1C(=O)O)CCN(c1ncc(F)cn1)C2`, the cytotoxicity at 70.5 h was -0.54%.

Regarding `O=C(O)c1cc2c(nc1N1CCOCC1)CCN(C1CCOC1)CC2` (configuration not stated), the cytotoxicity at 70.5 h was -4.23%.

Consider `COc1ccc(CN2C[C@H]3CCC[C@@H](CN(C)C4CC4)[C@H]3C2)cn1`, for which the cytotoxicity at 70.5 h is 10.8%.

Regarding `CO[C@@H]1CCN(S(=O)(=O)N(C)C)[C@@H]2CN(Cc3cccnc3)C[C@@H]21`, the cytotoxicity at 70.5 h was -4.13%.

In the case of `Cn1nccc1-c1ncc2c(c1C(=O)O)CCN(Cc1ccncc1)C2`, the cytotoxicity at 70.5 h was -0.712%.

Regarding `COc1ccc(CN2C[C@@H]3CN(Cc4cccnc4)CCO[C@@H]3C2)cc1`, the cytotoxicity at 70.5 h was -9.13%.

Take `c1cc(CN2C[C@@H]3OCCN(CCN4CCCC4)[C@@H]3C2)cs1`: the cytotoxicity at 70.5 h is -8.5%.

As for `c1cc(CN2C[C@@H]3OCCN(CCN4CCCC4)[C@@H]3C2)ccn1`, the cytotoxicity at 70.5 h is -8.99%.

With `COc1ccc2[nH]cc(C(=O)CNc3nccs3)c2c1`, the cytotoxicity at 70.5 h came to 14.4%.

The record behind these values is ChEMBL document CHEMBL3507680, “University of Dundee, Gates Library screen for HepG2 cell viability”.
